The results in this text go back to patent publication US8853230B2, “Inhibitors of JAK” (Portola Pharmaceuticals, Inc., priority 2009, dated 2014).

For the test, the target named is T1, JAK3 (Homo sapiens, UniProt P52333).
T1 construct: 5 μl of catalytic domain recombinant Kinase enzyme+Tyr peptide substrate (Invitrogen, Calif.); purchased Invitrogen
T1 sequence (P52333 822-1111 limits assumed): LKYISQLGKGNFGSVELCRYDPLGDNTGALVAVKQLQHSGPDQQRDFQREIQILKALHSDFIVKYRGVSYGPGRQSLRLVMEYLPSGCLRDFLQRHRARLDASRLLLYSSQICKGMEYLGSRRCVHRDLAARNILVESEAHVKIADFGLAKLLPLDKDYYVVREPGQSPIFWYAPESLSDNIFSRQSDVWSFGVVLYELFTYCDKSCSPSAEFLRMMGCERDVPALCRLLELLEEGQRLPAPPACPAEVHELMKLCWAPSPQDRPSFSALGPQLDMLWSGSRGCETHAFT
Put plainly: Z'-LYTE kinase assay, JAK3 tyrosine phosphorylation activity. Type of test: biochemical. The procedure: JAK and TYK2 tyrosine phosphorylation activity is measured using the Z′-LYTE™ Technology developed by Invitrogen Corporation (Carlsbad, Calif.). For JAK1, JAK2 and JAK3 the Z′-LYTE™ Kinase Assay Kit-Tyr6 Peptide (part number PV4122) was used. For TYK2 the Z′-LYTE™ Kinase Assay Kit-Tyr6 Peptide (part number PV3192) was used. The Z′-LYTE™ biochemical assay employs a fluorescence resonance energy transfer (FRET) coupled-enzyme format and is based on the differential sensitivity of phosphorylated and non-phosphorylated peptides to proteolitic cleavage. The assay uses a synthetic peptide substrate that is labelled with a donor fluorophore (coumarin) and an acceptor fluorophore (fluorescein) that make up a FRET pair. In the primary reaction (the Kinase Reaction), the kinase transfers the γ-phosphate of ATP to a single tyrosine residue on the substrate, while the presence of a kinase inhibitor in the primary reaction suppresses phosphorylation. In the secondary reaction (the Development Reaction), a site-specific protease (the Development Reagent) is added. The development buffer quenches the Kinase Reaction, while the protease recognizes and cleaves non-phosphorylated Z′-LYTE™ peptide substrate. Cleavage disrupts FRET between the donor and acceptor fluorophores on the non-phosphoryleted substrate, while uncleaved, phosphorylated substrate maintains FRET.
To test the ability of candidate molecules to inhibit JAK tyrosine phosphorylation activity, molecules are reconstituted in 100% DMSO and serially diluted 1:10 in polypropylene v-bottom microtiter plates. The candidate molecules are then diluted 1:25 into kinase buffer and 2.5 μl transferred into duplicate wells of a 384 well low volume black microtiter assay plate (Corning, USA). The final DMSO concentration in the assay is 1%. The kinase reaction contains 2.5 μl of a candidate molecule, 5 μl of catalytic domain recombinant Kinase enzyme+Tyr peptide substrate (Invitrogen, Calif.) and 2.5 μl ATP (Invitrogen, Calif.). The kinase reaction is allowed to procede for 1 hour at room temperature. The protease reaction is initiated by the addition of 5 μl Development Reagent (Invitrogen, Calif.). After 1 hour incubation at room temperature the fluorescence is measured using a FlexStation plate reader (Molecular Devices, Sunnyvale, Calif.). The reader settings used are as follows: Fluorescence mode, endpoint, top read, excitation 400 nm, emission 445 nm and 520 nm, Auto Cutoff 435 nm and 515 nm, PMT sensitivity high, 6 reads per well. Inhibition of JAK activity is calculated as the percent phosphorylation of substrate in the presence of inhibitor compared to the percent phosphorylation of substrate in the absence of inhibitor. IC50's were derived using Xlfit 4.3 (IDBS, UK), 4 parameter logistic model 205: Y=(A+((B−A)/(1+((C/x)^D)))).
Regarding `CC(=O)Nc1cccc(Nc2ncc(C(N)=O)c(NCC3CCCC3)n2)c1` [Example 280, 2-(3-acetamidophenylamino)-4-(cyclopentylmethylamino)pyrimidine-5-carboxamide], the IC50 is < 1 nM.
The result for `NC(=O)c1cnc(Nc2cccc(NC(=O)N3CCCC3)c2)nc1NCC1CCCC1` [Example 281] reads 100 to 1000 nM; that for `NC(=O)c1cnc(Nc2cccc(NC(=O)N3CC[C@@H](O)C3)c2)nc1NCc1ccccc1` [Example 282, (R)-4-(benzylamino)-2-(3-(3-hydroxypyrrolidine-1-carboxamido)phenylamino)pyrimidine-5-carboxamide], < 1 nM; that for `NC(=O)c1cnc(Nc2cccc(NC(=O)N3CC[C@@H](F)C3)c2)nc1NCc1ccccc1` [Example 283, (R)-4-(benzylamino)-2-(3-(3-fluoropyrrolidine-1-carboxamido)phenylamino)pyrimidine-5-carboxamide], < 1 nM.
Under `NC(=O)c1cnc(Nc2cccc(NC(=O)N3CC[C@H](F)C3)c2)nc1NCc1ccccc1` [Example 284, (S)-4-(benzylamino)-2-(3-(3-fluoropyrrolidine-1-carboxamido)phenylamino)pyrimidine-5-carboxamide] stands < 1 nM; under `NC(=O)c1cnc(Nc2ccc(F)c(NC(=O)N3CCCC3)c2)nc1NCc1ccccc1F` [Example 288, 2-(4-fluoro-3-(pyrrolidine-1-carboxamido)phenylamino)-4-(2-fluorobenzylamino)pyrimidine-5-carboxamide], 1 to 10 nM; under `NC(=O)c1cnc(Nc2cccc(NC(=O)N3CC[C@@H](F)C3)c2)nc1NCc1ccccc1F` [Example 289, (R)-4-(2-fluorobenzylamino)-2-(3-(3-fluoropyrrolidine-1-carboxamido)phenylamino)pyrimidine-5-carboxamide], 10 to 100 nM.
Consider `NC(=O)c1cnc(Nc2ccc(F)c(NC(=O)N3CCC3)c2)nc1NCc1ccccc1F` [Example 290, 2-(3-(azetidine-1-carboxamido)-4-fluorophenylamino)-4-(2-fluorobenzylamino)pyrimidine-5-carboxamide], for which the IC50 fell in the range of 1 to 10 nM.
Under `NC(=O)c1cnc(Nc2cccc(NC(=O)c3ccccn3)c2)nc1NCc1ccccc1F` [Example 295, 4-(2-fluorobenzylamino)-2-(3-(picolinamido)-phenylamino)pyrimidine-5-carboxamide] stands 10 to 100 nM.
For `NC(=O)c1cnc(Nc2cccc(NC(=O)c3cccnc3)c2)nc1NCc1ccccc1F` [Example 296, 4-(2-fluorobenzylamino)-2-(3-(nicotinamido)-phenylamino)pyrimidine-5-carboxamide], the IC50 is < 1 nM.
Under `NC(=O)c1cnc(Nc2cccc(NC(=O)Cc3cccnc3)c2)nc1NCc1ccccc1F` [Example 297, 4-(2-fluorobenzylamino)-2-(3-(2-(pyridin-3-yl)acetamido)-phenylamino)pyrimidine-5-carboxamide] stands 1 to 10 nM; under `NC(=O)c1cnc(Nc2cccc(NC(=O)c3cccc(O)n3)c2)nc1NCc1ccccc1F` [Example 298, 4-(2-fluorobenzylamino)-2-(3-(6-hydroxypicolinamido)-phenylamino)pyrimidine-5-carboxamide], 1 to 10 nM; under `NC(=O)c1cnc(Nc2cccc(NC(=O)Cc3ccncc3)c2)nc1NCc1ccccc1F` [Example 299, 4-(2-fluorobenzylamino)-2-(3-(2-(pyridin-4-yl)acetamido)-phenylamino)pyrimidine-5-carboxamide], < 1 nM.
Turning to `NC(=O)c1cnc(Nc2cccc(NC(=O)Cc3ccccn3)c2)nc1NCc1ccccc1F` [Example 300, 4-(2-fluorobenzylamino)-2-(3-(2-(pyridin-2-yl)acetamido)-phenylamino)pyrimidine-5-carboxamide], the IC50 is < 1 nM.
The result for `CC(=O)Nc1cccc(Nc2ncc(C(N)=O)c(Nc3ccc(NC(=O)CC#N)cc3)n2)c1` [Example 301, 2-(3-acetamidophenylamino)-4-(4-(2-cyanoacetamido)-phenylamino)pyrimidine-5-carboxamide] reads 1 to 10 nM.
